Data taken from the NIST ThermoML archive (doi:10.1021/je800101v).

Assay: xn = mol fraction of the nth substance listed
Conditions: Ring tensiometer

CCCCCCCO [heptan-1-ol] + OCCO
surface tension liquid-gas [mN/m]
Conditions | 298.15 K | 303.15 K | 308.15 K | 313.15 K | 318.15 K
x1 = 0.0559 | 29.24 | 29.16 | 28.96 | 28.78 | 28.64
x1 = 0.1059 | 27.73 | 28.02 | 27.88 | 27.71 | 27.55
x1 = 0.1508 | 27.18 | 27.66 | 27.55 | 27.42 | 27.28
x1 = 0.1914 | 27.05 | 27.54 | 27.21 | 27.06 | 26.91
x1 = 0.2512 | 26.93 | 27.36 | 26.98 | 26.81 | 26.67
x1 = 0.3027 | 26.78 | 27.2 | 26.84 | 26.71 | 26.57
x1 = 0.3559 | 26.67 | 27.07 | 26.69 | 26.53 | 26.35
x1 = 0.4085 | 26.57 | 26.89 | 26.65 | 26.42 | 26.28
x1 = 0.4532 | 26.41 | 26.77 | 26.57 | 26.32 | 26.16
x1 = 0.4966 | 26.32 | 26.67 | 26.42 | 26.23 | 26.07
x1 = 0.5502 | 26.25 | 26.6 | 26.24 | 26.07 | 25.91
x1 = 0.5999 | 26.17 | 26.48 | 26.12 | 25.92 | 25.78
x1 = 0.6369 | 26 | 26.39 | 26.09 | 25.83 | 25.65
x1 = 0.6928 | 26.08 | 26.31 | 26.01 | 25.68 | 25.52
x1 = 0.7246 | 26.01 | 26.25 | 25.91 | 25.62 | 25.48
x1 = 0.7978 | 25.92 | 26.18 | 25.85 | 25.52 | 25.37
x1 = 0.8403 | 25.83 | 26.12 | 25.78 | 25.51 | 25.31
x1 = 0.8875 | 25.71 | 26.07 | 25.68 | 25.45 | 25.21
x1 = 0.9404 | 25.62 | 26.02 | 25.62 | 25.45 | 25.14

CCCCCO [pentan-1-ol] + OCCO
surface tension liquid-gas [mN/m]
Conditions | 298.15 K | 303.15 K | 308.15 K | 313.15 K | 318.15 K
x1 = 0.0488 | 35.01 | 34.4 | 33.65 | 33.18 | 32.85
x1 = 0.0931 | 32.1 | 30.89 | 30.71 | 30.51 | 30.37
x1 = 0.1523 | 29.93 | 29.14 | 29.25 | 29.05 | 28.87
x1 = 0.2043 | 29.26 | 28.56 | 28.41 | 28.27 | 28.09
x1 = 0.2502 | 28.35 | 27.94 | 27.81 | 27.67 | 27.51
x1 = 0.2912 | 28.04 | 27.65 | 27.51 | 27.35 | 27.17
x1 = 0.3503 | 27.01 | 27.05 | 26.91 | 26.8 | 26.68
x1 = 0.4094 | 27.39 | 26.62 | 26.48 | 26.31 | 26.18
x1 = 0.4586 | 26.71 | 26.19 | 25.98 | 25.82 | 25.69
x1 = 0.5003 | 26.75 | 25.77 | 25.61 | 25.43 | 25.27
x1 = 0.552 | 26.53 | 25.39 | 25.21 | 25.02 | 24.91
x1 = 0.5982 | 25.71 | 25.15 | 24.98 | 24.81 | 24.68
x1 = 0.6425 | 26.32 | 24.96 | 24.79 | 24.67 | 24.53
x1 = 0.6979 | 26.21 | 24.75 | 24.57 | 24.41 | 24.25
x1 = 0.7197 | 26.12 | 24.63 | 24.51 | 24.37 | 24.19
x1 = 0.7739 | 25.98 | 24.35 | 24.18 | 23.98 | 23.82
x1 = 0.837 | 24.89 | 24.23 | 24.15 | 23.92 | 23.78
x1 = 0.9113 | 25.45 | 24.13 | 24 | 23.81 | 23.65
x1 = 0.9536 | 25.25 | 24.02 | 23.89 | 23.75 | 23.61
